Data set [1] is described as follows: Pharmacokinetic interaction between lopinavir/r and the Compound, steady-state PK in healthy volunteers. Type of data set: in vivo, human. The note with it: for Exposures when coadministered with the Compound: LPV/r 400/100 mg BID + the Compound 125 mg QD; for AUCtau % GMR (90% CI) / Cmax % GMR (90% CI) / Ctau % GMR (90% CI): 14-day periods.
Data set [2] can be described thus: Compartmental modeling in WinNonlin of Compound doses using the observed lopinavir interaction data. Also on record: species or system human. The note with it: modeled. The text has this: Consideration was given to achieving equivalent Compound exposures in patients receiving and not receiving lopinavir using pharmacokinetic (bio-) equivalence comparisons (Pharsight Corporation, Mountain View, Calif., USA). Consideration was also given to minimizing the number of individuals with extreme outliers in (low or high) exposures.

Where [3] appears, read: LPV/r 400/100 mg BID + the Compound 125 mg QD vs LPV/r 400/100 mg BID alone, n = 13.
Setting [4] is: the Compound 125 mg QD + LPV/r 400/100 mg BID vs the Compound/r 125/100 mg QD alone, n = 14.

“And” between values parts separate entries of the source, which are not always exact repeats. Equal values may be shown once.

The record followed here is patent publication US20090093482A1, “THERAPEUTIC COMPOSITIONS AND METHODS” (Gilead Sciences, Inc., priority 2007, published 2009).

Turning to `Cc1cccc(C)c1OCC(=O)N[C@@H](Cc1ccccc1)[C@@H](O)C[C@H](Cc1ccccc1)NC(=O)[C@H](C(C)C)N1CCCNC1=O` [LPV, (2S)-N-[(2S,4S,5S)-5-{[2-(2,6-dimethyl-phenoxy)acetyl]amino}-4-hydroxy-1,6-diphenyl-hexan-2-yl]-3-methyl-2-(2-oxo-1,3-diazinan-1-yl)butanamide], the “Exposures when coadministered with the Compound” value in data set [1] was “unaltered”. Besides, in data set [1] (setting [3]), the “AUCtau % GMR (90% CI)” value stood at 96.6%, the “Cmax % GMR (90% CI)” value stood at 99.2% and the “Ctau % GMR (90% CI)” value stood at 92.3%. The “Trough concentrations when coadministered with the Compound” value in data set [1] (relative to recommended target troughs) is recorded as “maintained above recommended target troughs”.
As for `CC(C)c1nc(CN(C)C(=O)NC(C(=O)NC(Cc2ccccc2)CC(O)C(Cc2ccccc2)NC(=O)OCc2cncs2)C(C)C)cs1` (stereo not drawn) [RTV, 1,3-thiazol-5-ylmethyl[3-hydroxy-5-[3-methyl-2-[methyl-[(2-propan-2-yl-1,3-thiazol-4-yl)methyl]carbamoyl]amino-butanoyl]amino-1,6-diphenyl-hexan-2-yl]aminoformate], the “Exposures when coadministered with the Compound” value in data set [1] is “unaltered”. Also, in data set [1] (setting [3]), the “AUCtau % GMR (90% CI)” value came to 103%, the “Cmax % GMR (90% CI)” value was found to be 114% and the “Ctau % GMR (90% CI)” value is 88.3%.
Take `COc1cc2c(cc1Cc1cccc(Cl)c1F)c(=O)c(C(=O)O)cn2[C@H](CO)C(C)C` [the Compound, 6-(3-chloro-2-fluorobenzyl)-1-[(2S)-1-hydroxy-3-methylbutan-2-yl]-7-methoxy-4-oxo-1,4-dihydroquinoline-3-carboxylic acid]: in data set [1] (setting [4]), the “AUCtau % GMR (90% CI)” value is recorded as 175 (150, 204) %; the “Cmax % GMR (90% CI)” value is recorded as 152 (129, 179) %; the “Ctau % GMR (90% CI)” value is listed as 238 (181, 313) %. Besides, in data set [2], the “Reduction in the dose of the Compound with lopinavir while maintaining an equivalent exposure” value is 40-60%. For the same molecule, in data set [2] (reference is the 150 mg ritonavir-boosted dose without lopinavir), the “Dose of the Compound with lopinavir/r giving systemic exposure (AUC) similar to a 150 mg dose without lopinavir” value was 85 mg and 85 ± 10 mg. In data set [2] (reference is the 300 mg ritonavir-boosted dose without lopinavir), the “Dose of the Compound with lopinavir/r giving systemic exposure (AUC) similar to a 300 mg dose without lopinavir” value was 150 mg.
